# Experiments:
# [1] = tested on: PC3; experiment: MTT overall cell growth, PC3 cells; type: cell-based; conditions: Homo sapiens, 72 h; PC-3; 3 days of culturing; mean of six determinations; read-out: IC50 (μM) In Vitro Growth Inhibition
# Procedure: Tests were performed in order to rapidly, i.e. within 5 days, measure the effect of the compound of example 2 on the overall cell growth. The test measures the number of metabolically active living cells that are able to transform the yellow product 3-(4,5-dimethylthiazol-2-yl)-2,5-diphenyl tetrazolium bromide (herein referred as MTT) into the blue product formazan dye by mitochondrial reduction. The amount of formazan obtained at the end of the experiment, measured by means of a spectrophotometer, is directly proportional to the number of living cells. Optical density determination thus enables a quantitative measurement of the effect of the investigated compounds as compared to the control condition (untreated cells) and/or to other reference compounds. […]
# After 72 hours of incubation at 37° C. with (experimental conditions) or without (control condition) the compound to be tested, the medium was replaced by 100 μl MTT dissolved in RPMI (1640 without phenol red) at a concentration of 1 mg/ml. […] The micro-wells were shaken for 5 minutes and read on a spectrophotometer at wavelengths of 570 nm (maximum formazan absorbance) and 630 nm (back-ground noise).
# For each experimental condition, the mean optical density was calculated, as well as the percentage of remaining living cells in comparison with the control. […]
# [2] = tested on: DU-145; experiment: MTT colorimetric assay, DU-145 cells; type: cell-based; conditions: Homo sapiens, 72 h, 3 days of culturing, mean of six determinations, read-out: IC50 (μM) In Vitro Growth Inhibition
# Procedure: (§1) The overall growth of human cancer cell lines was determined by means of the calorimetric MTT (3-[4,5-dimethylthiazol-2-yl]-diphenyl tetrazolium bromide; Sigma) assay, as detailed previously.
# [3] = tested on: Hs683; experiment: MTT colorimetric assay, Hs683 cells; type: cell-based; conditions: Homo sapiens, Hs 683, 72 h, 3 days of culturing, mean of six determinations, read-out: IC50 (μM) In Vitro Growth Inhibition
# Procedure: as §1
# [4] = tested on: PC-3; experiment: Autophagy: acidic vesicular organelles, acridine orange flow cytometry, PC-3; type: cell-based, human; conditions: red fluorescence, up to 10 μM
# Procedure: The cytoplasm and nucleus fluoresce green in acridine orange-stained cells, and the acidic compartments fluoresce red. The intensity of the red fluorescence is proportional to the degree of acidity and the volume of acidic vesicular organelles, including autophagic vacuoles. To quantify the development of acidic vesicular organelles, the cells were stained with acridine orange for 15 minutes and removed from the plate with trypsinization. Cells were then analyzed by flow cytometry. Each sample was evaluated in triplicate.
# [5] = tested on: CFC-GEMM; experiment: HALO hematotoxicity assay, mouse CFC-GEMM; type: cell-based; conditions: 5 days culture, iATP
# Procedure: (§2) Investigation of the hematotoxic potential of UNBS5162 was undertaken by HemoGenix (Colorado Springs, Colo.). The effects of UNBS5162 on stem and progenitor cell populations from murine and human bone marrow were assessed using HALO (Hematopoietic/Hematotoxicity Assay through Luminescence Output) technology. Stem and hematopoietic progenitor cell populations were isolated from mouse and human bone marrow samples, plated at a concentration of 1.0×10^4 cells/well and cultured for 5 and 7 days, respectively, in the presence of growth factors and increasing concentrations of UNBS5162 ranging from 0.5 nM to 50 μM. The proliferative or growth potential of cell populations was determined from intracellular ATP (iATP) concentrations and a luciferin/luciferase bioluminescence signal detection system. All samples were assayed in eight replicates. The results are presented as estimated inhibitory concentration (IC) values.
# [6] = tested on: BFU-E; experiment: HALO hematotoxicity assay, human BFU-E; type: cell-based; conditions: 7 days culture, iATP
# Procedure: as §2
# [7] = tested on: PC-3; experiment: Quantitative videomicroscopy, PC-3; type: cell-based, human
# Procedure: Use was made of computer-assisted phase-contrast microscopy (quantitative videomicroscopy) in the attempt to elucidate an overall picture of UNBS5162's mechanism of action. […] In addition, 10 μM UNBS5162 caused a marked enlargement in PC-3 cells by the end of the 6-day treatment period compared with the start of the experiment.
# [8] = tested on: PC-3; experiment: Cell cycle kinetics by flow cytometry (PI), PC-3; type: cell-based, human
# Procedure: The cell cycle kinetics of prostate cancer cells left untreated or incubated with UNBS5162 were determined by flow cytometry analysis of propidium iodide (PI) nuclear staining, using previously detailed methodology. Each sample was evaluated in triplicate. Flow cytometry was undertaken using an Epics XL.MCL flow cytometer and the FACScan/CellQuest software system (Becton Dickinson, Miami, Fla.).
# [9] = tested on: E2F1; experiment: E2F1 expression (Western blot), DU-145; type: cell-based, human; conditions: 10 μM
# [10] = tested on: CXCL1, CXCL2, CXCL3, CXCL5, CXCL6, and CXCL8 chemokines; experiment: CXCL chemokine expression (microarray and ELISA), PC-3; type: cell-based, human; conditions: 1 μM five times a week
# Procedure: Two different Quantikine ELISA kits (R&D Systems, Abingdon, UK) for the quantification of human CXCL1 and CXCL8 (IL-8) were used in this study in accordance with the manufacturer's instructions. Cell culture supernatants were collected after different treatments and periods, with multiple aliquots taken and stored at −20° C. until analysis.
structure (smiles),measurement,setting,value
"CN(C)CCN1C(=O)c2cccc3cc(NC(N)=O)cc(c23)C1=O [UNBS5162, N-{2-[2-(dimethylamino)ethyl]-1,3-dioxo-2,3-dihydro-1H-benzo[de]isoquinolin-5-yl}urea]",IC50,[1],17.3 µM
same,IC50,[2],16 µM
same,IC50,[3],8.5 µM
same,pro-autophagic effects (acidic vesicular organelles),[4],had a proautophagic effect
same,pro-autophagic effects (acidic vesicular organelles),[4]; listed as example 2,pro-autophagic effects
same,IC50,[5]; 120 h,6.22 µM
same,IC90,[5]; 120 h,8.96 µM
same,IC75,[5],7.48 µM
same,IC50,[6]; 168 h,3.6 µM
same,IC90,[6]; 168 h,17.6 µM
same,IC75,[6],8.16 µM
same,cell dynamics (videomicroscopy),[7]; 1 μM,induced no detectable changes
same,cell population development (videomicroscopy),"[7]; 10 μM, six days of observation",prevented PC-3 cell population development
same,cell cycle kinetics,[8]; 1 μM,did not significantly (P>0.05) modify
same,"cell cycle kinetics, G2 block",[8]; 10 μM for 72 hours,markedly blocked PC-3 cells in their G2 cell cycle phase
same,cell cycle kinetics,[8]; chronic 1 μM for 5 days (5×1) or 3 weeks (3w1),did not notably modify PC-3 cell cycle kinetics
same,E2F1 expression,[9],a decrease but not the complete disappearance of Rb protein and E2F1 expression
same,expression of proangiogenic CXCL chemokines (mRNA and protein),[10],dramatically decreased

# From US20090186915A1, “Compositions and methods for treatment of glioblastoma, gliosarcoma, NSCLC, and head and neck cancer” (Unibioscreen S. A., priority 2006, published 2009)
